Assay: Dissociation constant for binding affinity towards Concanavalin A determined by fluorescence anisotropy inhibition assay

Compared with `CO[C@H]1O[C@@H](CO[C@H]2O[C@@H](CO)[C@@H](O)[C@H](O)[C@H]2O)[C@@H](O)[C@H](O)[C@H]1O`, `CO[C@H]1O[C@@H](CO[C@H]2S[C@@H](CO)[C@@H](O)[C@H](O)[C@H]2O)[C@@H](O)[C@H](O)[C@H]1O` is 8.5-fold higher in Kd: 150 µM for the first, 1280 µM for the second.

Compared with `CO[C@H]1O[C@@H](CO[C@H]2S[C@@H](CO)[C@@H](O)[C@H](O)[C@H]2O)[C@@H](O)[C@H](O[C@H]2O[C@@H](CO)[C@@H](O)[C@H](O)[C@H]2O)[C@H]1O`, `CO[C@H]1O[C@@H](CO[C@H]2O[C@@H](CO)[C@@H](O)[C@H](O)[C@H]2O)[C@@H](O)[C@H](O[C@H]2S[C@@H](CO)[C@@H](O)[C@H](O)[C@H]2O)[C@H]1O` is 2.6-fold lower in Kd: 18 µM for the first, 7 µM for the second. The second binds more tightly here.

Going from `CO[C@H]1O[C@@H](CO[C@H]2O[C@@H](CO)[C@@H](O)[C@H](O)[C@H]2O)[C@@H](O)[C@H](O[C@H]2O[C@@H](CO)[C@@H](O)[C@H](O)[C@H]2O)[C@H]1O` to `CO[C@H]1O[C@@H](CO)[C@@H](O)[C@H](O[C@H]2O[C@@H](CO)[C@@H](O)[C@H](O)[C@H]2O)[C@H]1O`, the Kd rises from 3 µM to 49 µM (16-fold).

Compared with `CO[C@H]1O[C@@H](CO[C@H]2S[C@@H](CO)[C@@H](O)[C@H](O)[C@H]2O)[C@@H](O)[C@H](O[C@H]2S[C@@H](CO)[C@@H](O)[C@H](O)[C@H]2O)[C@H]1O`, `CO[C@H]1O[C@@H](CO)[C@@H](O)[C@H](O[C@H]2S[C@@H](CO)[C@@H](O)[C@H](O)[C@H]2O)[C@H]1O` is 4.6-fold higher in Kd: 376 µM for the first, 1720 µM for the second.
